Reference: patent US10017535B2, “Amphiphilic compounds with neuroprotective properties” (USTAV ORGANICKE CHEMIE A BIOCHEMIE AV CR, v.v.i., priority 2014, dated 2018)
Counter-ions that a name gives are not always drawn. Like-named read-outs stand apart in the source and are kept apart here.

Legend:
[1] = target: T1, NR1-1a/NR2B NMDA receptor (Rattus norvegicus, UniProt P35439+Q00960); assay: Patch-clamp inhibition of glutamate-evoked currents at recombinant NMDA receptors in transfected HEK293 cells; type: cell-based
T1 construct: expressed in transfected cells; host or cells: HEK293 cells (ATCC CRL1573)
Method: Transfected cells were identified by means of fluorescent green protein (GFP) fluorescence. Its genus was transfected together with the both receptor subunit genes.
Steroid-containing solutions were prepared from fresh solution (20 mmol·l^−1, of steroid dissolved in dimethyl sulfoxide, DMSO), which was added to the extracellular solution containing 1 mmol·l^−1 glutamic acid and 10 μmol·l^−1 of glycine. Identical concentrations of DMSO were added to all other extracellular solutions.
Current responses produced by extracellular application of glutamic acid solution (1 mmol·l^−1) were measured from the whole cell by patch-clamp technique, which is used for the study of transport of charged particles through model and also natural biological membranes. The currents were measured at membrane potential maintained at −60 mV and +60 mV.
Same amounts (0.3 μg) of cDNA coding NR1, NR2 and GFP (green fluorescent protein) (pQBI 25, Takara, Japan) were mixed with 0.9 μl of Matra-A Reagent (IBA, Göttingen, Germany) and added to confluent HEK293 cells cultivated in v 24-pit cultivating plate. After trypsination, the cells were re-suspended in Opti-MEM® I containing 1% fetal bovine serum. Subsequently, 20 mmol·l^−1 MgCl2, 1 mmol l^−1 D,L-2-amino-5-phosphonopentanoic acid, 3 mmol·l^−1 kynurenic acid was added to the mixture and cells were inoculated on the polylysine-coated glass plates having 25 mm in diameter. The following genes coding NMDA receptor subunits were used for transfection: NR1-1 a (GenBank accession No. U08261) and NR2B (GenBank accession No. M91562).
HEK293 Cultured cells were used for electrophysiological investigations with a latency of 16-40 h after transfection. Whole-cell currents were measured by patch-clamp amplifier (Axopatch 1D; Axon Instruments, Inc. Foster City, USA) after capacitance and serial resistance (<10 MΩ) compensation to 80-90%. Agonist-induced responses were filtered to 1 kHz (8-pole Bessel filter; Frequency Devices, Haverhill, USA), digitized with sampling frequency of 5 kHz and analyzed by pClamp version 9 software (Axon Instruments, USA). […] Extracellular solution (ECS) contained 160 mmol·l^−1 sodium chloride, 2.5 mmol·l^−1 potassium chloride, 10 mmol·l^−1 HEPES, 10 mmol·l^−1 glucose, 0.2 mmol·l^−1 EDTA a 0.7 mmol·l^−1 calcium chloride (pH adjusted to 7.3 by sodium hydroxide solution). Glycine was added to both testing and control solution. Moreover, bicuculline (10 μmol·l^−1) and tetrodotoxin (0.5 μmol·l^−1) was added to hippocampal cultures. Steroid-containing solutions were prepared from fresh solution (20 mmol·l^−1) of steroid dissolved in dimethyl sulfoxide (DMSO). Same concentrations of DMSO were used in all extracellular solutions. Control and experimental solutions were applied via microprocessor-controlled perfusion system with approx. rate of solution exchange in areas adjacent to cells reaching ˜10 ms.
Current responses produced by 100 μmol·l^−1 of NMDA (in the case of hipocampal neurones), or by 1 mmol·l^−1 of glutamate (on recombinant NMDA receptors) were measured at membrane potential maintained at −60 mV. […] Relative effect of steroid-induced inhibition was used for calculating IC50.

[2] = HEK293, read-out: Mean % change ± SD
[3] = calculated from relative steroid-induced inhibition, Hill's coefficient 1.2, read-out: IC50

T1 sequence (Q00960 27-1482, other chains not shown): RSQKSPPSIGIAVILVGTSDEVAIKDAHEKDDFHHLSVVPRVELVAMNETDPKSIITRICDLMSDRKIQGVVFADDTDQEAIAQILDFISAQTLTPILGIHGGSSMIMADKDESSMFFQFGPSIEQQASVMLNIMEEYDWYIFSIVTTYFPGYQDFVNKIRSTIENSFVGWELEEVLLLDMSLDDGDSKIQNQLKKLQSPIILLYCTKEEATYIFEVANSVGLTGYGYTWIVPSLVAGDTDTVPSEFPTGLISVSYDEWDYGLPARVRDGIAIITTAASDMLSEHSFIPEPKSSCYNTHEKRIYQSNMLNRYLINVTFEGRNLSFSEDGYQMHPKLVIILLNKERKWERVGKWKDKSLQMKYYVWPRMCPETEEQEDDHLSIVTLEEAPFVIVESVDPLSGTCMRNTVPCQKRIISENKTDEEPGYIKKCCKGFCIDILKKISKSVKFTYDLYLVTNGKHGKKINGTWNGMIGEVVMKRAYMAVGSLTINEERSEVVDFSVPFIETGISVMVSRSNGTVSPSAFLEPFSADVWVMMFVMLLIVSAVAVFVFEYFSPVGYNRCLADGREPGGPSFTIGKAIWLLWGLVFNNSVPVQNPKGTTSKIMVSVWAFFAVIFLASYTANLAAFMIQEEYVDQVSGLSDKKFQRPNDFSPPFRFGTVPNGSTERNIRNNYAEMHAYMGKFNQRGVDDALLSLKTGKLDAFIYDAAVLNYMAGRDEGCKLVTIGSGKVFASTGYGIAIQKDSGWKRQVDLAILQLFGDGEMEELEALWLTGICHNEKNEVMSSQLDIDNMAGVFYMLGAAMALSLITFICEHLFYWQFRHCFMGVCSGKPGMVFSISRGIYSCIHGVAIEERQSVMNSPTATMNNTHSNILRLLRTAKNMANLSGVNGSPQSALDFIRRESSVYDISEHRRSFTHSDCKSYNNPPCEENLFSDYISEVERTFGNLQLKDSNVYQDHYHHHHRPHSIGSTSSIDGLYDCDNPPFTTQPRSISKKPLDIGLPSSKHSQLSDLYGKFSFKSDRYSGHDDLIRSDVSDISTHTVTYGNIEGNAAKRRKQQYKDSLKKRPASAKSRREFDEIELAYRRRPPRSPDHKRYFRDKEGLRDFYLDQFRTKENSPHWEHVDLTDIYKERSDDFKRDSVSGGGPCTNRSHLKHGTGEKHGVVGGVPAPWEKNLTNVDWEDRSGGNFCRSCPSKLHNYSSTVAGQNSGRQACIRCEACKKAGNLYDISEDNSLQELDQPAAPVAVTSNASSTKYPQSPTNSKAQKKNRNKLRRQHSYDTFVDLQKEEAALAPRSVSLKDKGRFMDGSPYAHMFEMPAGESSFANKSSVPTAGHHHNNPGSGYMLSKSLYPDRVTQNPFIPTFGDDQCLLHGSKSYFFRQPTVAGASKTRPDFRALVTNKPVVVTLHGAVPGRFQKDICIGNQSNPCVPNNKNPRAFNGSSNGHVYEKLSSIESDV

Row | SMILES | melting point | IC50 [1, 3] | further results
1 | CC[C@@H](C)C1CC[C@H]2[C@@H]3CC[C@@H]4C[C@H](NC(=O)C(=O)[O-])CC[C@]4(C)[C@H]3CC[C@]12C.[Na+] (stereo partly drawn) [Compound 148, Sodium 2-(((3R,5R,8R,9S,10S,13R,14S)-17-((R)-sec-butyl)-10,13-dimethylhexadecahydro-1H-cyclopenta[a]phenanthren-3-yl)amino)-2-oxoacetate] | 182 to 184 °C (dec.) | 9.4 µM | inhibition at 1 µM [1, 2]: 7.3 ± 3%
2 | CC[C@@H](C)C1CC[C@H]2[C@@H]3CC[C@@H]4C[C@H](NC(=O)CC(=O)O)CC[C@]4(C)[C@H]3CC[C@]12C (stereo partly drawn) [Compound 149, 3-(((3R,5R,8R,9S,10S,13R,14S)-17-((R)-Sec-butyl)-10,13-dimethylhexadecahydro-1H-cyclopenta[a]phenanthren-3-yl)amino)-3-oxopropanoic acid] | 163 to 165 °C | 18.3 µM | inhibition at 10 µM [1, 2]: 33.6 ± 6.1%
3 | C[C@H]1CC[C@H]2[C@@H]3CC[C@@H]4C[C@H](NC(=O)CC(=O)O)CC[C@]4(C)[C@H]3CC[C@]12C [Compound 140, 3-Oxo-3-(((3R,5R,8S,9S,10S,13R,14S,17S)-10,13,17-trimethylhexadecahydro-1H-cyclopenta[a]phenanthren-3-yl)amino)propanoic acid] | 147.8 to 149.4 °C | 3.9 µM | inhibition at 1 µM [1, 2]: 17.8 ± 6.5%
4 | C[C@@H]1CC[C@H]2[C@@H](CC[C@@H]3C[C@H](OC(=O)CCC(=O)O)CC[C@@]32C)C1 [Compound 34, 4-(((2R,4aS,4bS,7R,8aS,10aR)-4a,7-Dimethyltetradecahydrophenanthren-2-yl)oxy)-4-oxobutanoic acid] | 119 to 121 °C | 23.2 µM | inhibition at 10 µM ([1]; HEK293, steroid concentration 10 μmol·l^−1, 1 mmol·l^−1 glutamate, −60 mV, read-out: Mean % change ± SD): 27 ± 10%
5 | C[C@@]12CCC[C@H]1[C@@H]1CC[C@@H]3C[C@H](NC(=O)C(=O)O)CC[C@]3(C)[C@H]1CC2 [Compound 59, 2-(((3R,5R,8S,9S,10S,13S,14S)-10,13-Dimethylhexadecahydro-1H-cyclopenta[a]phenanthren-3-yl)amino)-2-oxoacetic acid] | 191 to 193 °C | 23.2 µM | inhibition at 10 µM [1, 2]: 32 ± 5%
6 | C=C1C[C@H]2[C@@H]3CC[C@@H]4C[C@H](OC(=O)CCC(=O)O)CC[C@]4(C)[C@H]3CC[C@]2(C)C1 | 165 to 165.7 °C |  | 
7 | C[C@@]12CCC[C@H]1[C@@H]1CC[C@@H]3C[C@H](OC(=O)CCC[N+](C)(C)C)CC[C@]3(C)[C@H]1CC2 (as salt: chloride) [Compound 62, 4-(((3R,5R,8S,9S,10S,13S,14S)-10,13-Dimethylhexadecahydro-1H-cyclopenta[a]-phenanthren-3-yl)oxy)-N,N,N-trimethyl-4-oxobutan-1-ammonium chloride] | 225 to 227 °C |  | 
8 | COC[C@@]1(C)CC[C@H]2[C@@H](CC[C@@H]3C[C@H](OC(=O)CCC(=O)O)CC[C@@]32C)C1 [Compound 45, 4-(((2R,4aS,4bS,7S,8aS,10aR)-7-(Methoxymethyl)-4a,7-dimethyltetradecahydrophenanthren-2-yl)oxy)-4-oxobutanoic acid] | 107 to 109 °C |  | 
9 | C=C1C[C@H]2[C@@H]3CC[C@@H]4C[C@H](OS(=O)(=O)O)CC[C@]4(C)[C@H]3CC[C@]2(C)C1 (as salt: salt) [Compound 114, Pyridinium (3R,5R,8S,9S,10S,13R,14S)-10,13-dimethyl-16-methylenhexadekhydro-1H-cyclopenta[a]phenanthren-3-yl 3-sulfate] | 180 to 182 °C |  | 
10 | COC(=O)C1(C)CCC2C(CCC3CC(OS(=O)(=O)O)CCC32C)C1C (as salt: salt) [Compound 22, Pyridinium (2R,4aS,7S,8S,10aR)-7-(methoxycarbonyl)-4a,7,8-trimethyltetra-decahydrophenanthren-2-yl 2-sulfate] | 145 to 147 °C |  | 
11 | C[C@@]12CCCCC1[C@@H]1CC[C@@H]3C[C@H](OC(=O)CCC(=O)O)CC[C@]3(C)[C@H]1CC2 (stereo partly drawn) [Compound 103, 4-(((2R,4aS,4bS,6aS,10bS,12aR)-4a,6a-Dimethyloctadecahydrochrysen-2-yl)oxy)-4-oxobutanoic acid] | 136 to 138 °C |  | 
12 | C[C@H]1CC[C@H]2[C@@H]3CC[C@@H]4C[C@H](NC(=O)C(=O)[O-])CC[C@]4(C)[C@H]3CC[C@]12C.[Na+] [Compound 138, Sodium 2-oxo-2-(((3R,5R,8S,9S,10S,13R,14S,17S)-10,13,17-trimethylhexadecahydro-1H-cyclopenta[a]phenanthren-3-yl)amino)acetate] | 330 to 334.6 °C | 3.7 µM | inhibition at 1 µM [1, 2]: 17.5 ± 1.8%
13 | C[C@@]12CCC[C@H]1[C@@H]1CC[C@@H]3C[C@H](NC(=O)CC(=O)O)CC[C@]3(C)[C@H]1CC2 [Compound 61] | 126 to 128 °C |  | IC50 [1]: 15.4 µM; inhibition at 10 µM [1, 2]: 40 ± 5.7%
14 | C[C@]12CC[C@@H](CC(=O)O)C[C@H]1CC[C@@H]1[C@@H]2CC[C@]2(C)C(=O)CC[C@@H]12 [Compound 74, 2-((3R,5R,8R,9S,10S,13S,14S)-10,13-Dimethyl-17-oxohexadecahydro-1H-cyclopenta[a]phenanthren-3-yl)acetic acid] | 130 to 133 °C | 38.7 µM | inhibition at 50 µM [1, 2]: 58.6 ± 9.3%
15 | C[C@@H]1CC[C@H]2[C@@H](CC[C@@H]3C[C@H](OS(=O)(=O)O)CC[C@@]32C)C1 (as salt: salt) [Compound 35, Pyridinium (2R,4aS,4bS,7R,8aS,10aR)-4a,7-dimethyltetradecahydrophenanthren-2-yl 2-sulfate] | 147 to 149 °C |  | 
16 | C[C@@]12CCCCC1[C@@H]1CC[C@@H]3C[C@H](OC(=O)CC(=O)O)CC[C@]3(C)[C@H]1CC2 (stereo partly drawn) [Compound 102, 3-(((2R,4aS,4bS,6aS,10bS,12aR)-4a,6a-Dimethyloctadecahydrochrysen-2-yl)oxy)-3-oxopropanoic acid] | 145.3 to 147.2 °C |  | 
17 | C[C@H]1CC[C@H]2[C@@H]3CC[C@@H]4C[C@H](OC(=O)CCC(=O)O)CC[C@]4(C)[C@H]3CC[C@]12C | 141 to 142 °C |  | 
18 | C=C(C)[C@H]1CC[C@H]2[C@@H]3CC[C@@H]4C[C@H](OC(=O)CC(=O)O)CC[C@]4(C)[C@H]3CC[C@]12C [Compound 88, 3-(((3R,5R,8R,9S,10S,13S,14S,17R)-10,13-Dimethyl-17-(prop-1-en-2-yl)hexadecahydro-4H-cyclopenta[a]phenanthren-3-yl)oxy)-3-oxopropanoic acid] | 147.7 to 148.3 °C | 11.8 µM | inhibition at 10 µM [1, 2]: 46 ± 0.9%
